Source: PubChem BioAssay (NCI)
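Briefly, cells in 96-well plates were exposed to five compound concentrations for 48 h, and endpoints were estimated by linear interpolation. GI50 is the concentration that inhibits growth by half. Definition used: TGI = concentration required for complete inhibition of growth.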

Tests used:
Assay in all cases: NCI-60 cell line screen, 48 h
HS 578T breast = test system: HS 578T breast
RPMI-8226 leukemia = test system: RPMI-8226 leukemia
TK-10 renal = test system: TK-10 renal
NCI-H23 lung = test system: NCI-H23 lung
K-562 leukemia = test system: K-562 leukemia
NCI-H460 lung = test system: NCI-H460 lung
BT-549 breast = test system: BT-549 breast
HCT-15 colon = test system: HCT-15 colon
MOLT-4 leukemia = test system: MOLT-4 leukemia
PC-3 prostate = test system: PC-3 prostate

Row | Compound | GI50 (HS 578T breast) | TGI (HS 578T breast) | GI50 (RPMI-8226 leukemia) | TGI (RPMI-8226 leukemia) | GI50 (TK-10 renal) | TGI (TK-10 renal) | GI50 (NCI-H23 lung) | TGI (NCI-H23 lung) | GI50 (K-562 leukemia) | TGI (K-562 leukemia) | GI50 (NCI-H460 lung) | TGI (NCI-H460 lung) | GI50 (BT-549 breast) | TGI (BT-549 breast) | GI50 (HCT-15 colon) | TGI (HCT-15 colon) | GI50 (MOLT-4 leukemia) | TGI (MOLT-4 leukemia) | GI50 (PC-3 prostate) | TGI (PC-3 prostate)
1 | Clc1ccc2c(NCCNc3nc(Cl)nc4ccccc34)ccnc2c1 | 2.26 µM | 4.96 µM | 0.279 µM | 0.769 µM | 1.95 µM | 3.46 µM | 1.83 µM | 3.7 µM | 0.255 µM | 0.614 µM | 0.536 µM | 1.83 µM | 1.81 µM | 3.72 µM | 1.14 µM | 2.55 µM | 0.332 µM | 1.25 µM | 1.6 µM | 3.12 µM
2 | N#CCCCCCn1c2ccccc2c2c3c(c4c5ccccc5[nH]c4c21)C(=O)N(O)C3=O | 4.77 µM | > 100 µM | 1.04 µM | 3.47 µM | 2.2 µM | 7.88 µM | 1.55 µM | 5.54 µM | 1.07 µM | > 100 µM | 1.19 µM | 4.96 µM | 1.84 µM | 9.53 µM | 2.15 µM | 7.82 µM | 0.37 µM | 4.33 µM | 1.39 µM | 4.51 µM
3 | O=C(CN1CCN(c2cc3c(cc2F)c(=O)c(C(=O)O)cn3C2CC2)CC1)Nc1ccc(C(=O)/C=C/c2ccccc2)cc1 | 4.99 µM | > 100 µM | 2.52 µM | 6.73 µM | 4.19 µM | > 100 µM | 2.48 µM | 14.3 µM | 3.07 µM | > 100 µM | 3.17 µM | > 100 µM | 3.55 µM | > 100 µM | 3.68 µM | > 100 µM | 5.13 µM | > 100 µM | 3.16 µM | > 100 µM
4 | COC(=O)[C@@H](C)C[C@H](Cc1ccccc1)NC(=O)c1csc([C@@H](C[C@H](C(C)C)N(C)C(=O)[C@@H](NC(=O)CN(C)C)C2CC2)OC(C)=O)n1 | 0.0263 µM | > 16.5 µM | 0.00576 µM | > 7.96 µM | 0.659 µM | > 16.5 µM | 0.0635 µM | > 16.5 µM | 0.00299 µM | > 16.5 µM | 0.0291 µM | > 16.5 µM | 0.0127 µM | 0.857 µM | 0.135 µM | > 16.5 µM | 0.0501 µM | > 16.5 µM | 0.0267 µM | > 16.5 µM
5 | Cc1cccc(Cc2cnc(NC(=O)/C=C/c3ccco3)s2)c1 | 0.0313 µM | > 100 µM | 0.0403 µM | > 100 µM | > 100 µM | > 100 µM | 0.108 µM | > 100 µM | 0.0347 µM | > 100 µM | 0.0359 µM | > 100 µM | 0.174 µM | > 100 µM | 0.0427 µM | > 100 µM | 0.0561 µM | > 100 µM | 0.04 µM | > 100 µM
6 | CCOC(=O)CCC(NC(=O)c1ccc(Nc2nc3cc(N)cc(N)c3nc2-c2ccccc2)cc1)C(=O)OCC (stereo not given) | 33.3 µM | 75 µM | 6.43 µM | > 59.3 µM | > 57.4 µM | > 87.3 µM | 30.8 µM | > 74.5 µM | 42.5 µM | > 100 µM | > 29.3 µM | > 69.3 µM | 40.1 µM | > 100 µM | > 48.1 µM | > 100 µM | 9.9 µM | > 27.2 µM | 20.5 µM | 89 µM
7 | CC[C@@]1(O)C(=O)N(CCN(C)C)Cc2c1cc1n(c2=O)Cc2cc3ccccc3nc2-1 | > 100 µM | > 100 µM | > 43.9 µM | > 100 µM | > 100 µM | > 100 µM | 8.35 µM | > 100 µM | > 41.7 µM | > 100 µM | 1.82 µM | > 83.1 µM | 42.5 µM | > 100 µM | 33.1 µM | > 100 µM | 3.93 µM | > 100 µM | 41.3 µM | > 100 µM
8 | CCOC(=O)Nc1ccc2nc(Sc3ccc(Cl)cc3)sc2c1 | 7.25 µM | 97.9 µM | 3.51 µM | 54.8 µM | 9.1 µM | 58.4 µM | 10.2 µM | > 100 µM | 0.423 µM | > 100 µM | 1.01 µM | > 76.9 µM | 11.6 µM | 46.3 µM | 0.632 µM | > 87.3 µM | 4.2 µM | > 87.6 µM | 4.27 µM | > 100 µM
9 | N#CSc1cc(-c2nc3ccccc3o2)ccc1N | 11.3 µM | 63.6 µM | 15.9 µM | 53 µM | 19.2 µM | 52.3 µM | 19.5 µM | > 86.1 µM | 2.55 µM | > 89.3 µM | 24 µM | > 100 µM | 23.8 µM | > 60.9 µM | 23.2 µM | > 100 µM | 4.09 µM | 22.1 µM | 12.5 µM | 81.6 µM
10 | Cc1cncc2cccc(S(=O)(=O)N3CCCNC[C@@H]3C)c12 | 1.51 µM | > 100 µM | 42.8 µM | > 100 µM | 9.18 µM | 84.4 µM | 31.5 µM | > 100 µM | 50 µM | > 100 µM | 8.81 µM | > 100 µM | 4.04 µM | 35.9 µM | 16.3 µM | > 100 µM | 20.7 µM | > 96.3 µM | 44.3 µM | > 100 µM
11 | c1ccc(-c2nn(-c3ccccc3)[n+](-c3ccccc3-c3ccccc3)n2)cc1 | 1.88 µM | 31.5 µM | 0.251 µM | 5.84 µM | 4.35 µM | 21.5 µM | 0.683 µM | 8.63 µM | 0.456 µM | 15.3 µM | 1.04 µM | 8.6 µM | 0.461 µM | 7.87 µM | 21.5 µM | > 100 µM | 1.8 µM | 17.6 µM | 0.37 µM | 6.18 µM
12 | COc1ccc(C(=O)C(CN(C)C)c2ccccc2)cc1 (stereo not given) | 1.95 µM | 6.17 µM | 1.88 µM | > 100 µM | 3.01 µM | 7.85 µM | 1.56 µM | 3.32 µM | 4.17 µM | > 100 µM | 6.13 µM | 19.2 µM | 1.76 µM | 4.56 µM | 1.81 µM | 4.73 µM | 4.41 µM | > 100 µM | 4.6 µM | 17.4 µM
13 | COc1cc(C2CC(c3cc(Cl)c(C)cc3O)=NN2c2ccc(S(N)(=O)=O)cc2)cc(OC)c1OC (stereo not given) | 2.21 µM | 7.02 µM | 2.66 µM | 14.8 µM | 2.6 µM | 6.6 µM | 2.11 µM | 5.32 µM | 3.22 µM | 30.9 µM | 2.06 µM | 3.87 µM | 2.6 µM | 7.01 µM | 3.28 µM | 11.8 µM | 4.46 µM | > 100 µM | 2.27 µM | 8.94 µM
